Experimental findings from patent US20240228572A1 (i2o Therapeutics, Inc., priority 2020, published 2024) are described below.

One may read the EC50 as the concentration needed to bring the measured effect to its halfway point.

*1 amine or outer side, *2 acyl side, *3 side chain or, on linkers, in order; H or OH if unused. Where a SMILES comes first, the peptide text is derived from it. Side-chain parts run from the residue outwards. [ ]: non-standard residue; d: D form. The star is where a group is joined. C20 diacid = O=C(O)CCCCCCCCCCCCCCCCCCC(=O)*; γGlu = O=C(O)[C@H](CCC(=O)[*:2])N[*:1]; AEEA = NCCOCCOCC(=O)O; Aib = CC(C)(N)C(=O)O

The target of assay [1] is T1, human GLP-1 receptor (GLP-1R) (Homo sapiens, UniProt P43220).
T1 construct: expressed in transfected cells
The experiment in a line: cAMP accumulation assay, CHO-K1 cells stably expressing human GLP-1R. In kind it is cell-based. Particulars: cAMP accumulation, mean pEC50, Table 10. The protocol:
(§1) In the presence of the non-specific cAMP/cGMP phosphodiesterase inhibitor, 3-isobutyl-1-methylxanthine (IBMX), accumulating cAMP can be measured in vitro using common detection methods. Thus, it is possible to estimate an in vitro potency (pEC50) for peptides activating each of these receptors using fit dose-response curves for cAMP accumulation.
CHO-K1 cells stably expressing human GLP-1R (Genebank accession #NM_002062) were grown in 90% F12-K media supplemented with 10% FBS and 250 μg/ml G418.
(§2) On day 1, CHO-K1 cells were plated at 1.5 million cells per T75 flask in 90% F12-K media supplemented with 10% FBS. On day 3 cells were transfected with 40 mcg of each expression plasmid using Lipofectamine 2000 transfection reagent. On day 5, cells were dispensed at 1000 cells per well in white 384-well OptiPlates in 5 mcL of assay buffer consisting of 1×HBSS, 5 mM HEPES, 0.5 mM IBMX, and 0.1% casein.
(§3) Peptides were serially diluted 4-fold in assay buffer to final concentrations ranging from 1×10^−9 M to 9.5×10^−16 M. Two assay controls consisting of 50 mcM forskolin (cAMP system maximum) or assay buffer only (cAMP system minimum) were also prepared. Five microliters of each peptide-concentration, or assay control, was added to triplicate wells and incubated for thirty minutes at room temperature. During this incubation step a 4× europium labelled cAMP tracer solution and a 4× Ulight®-anti-cAMP solution (consisting of an anti-cAMP monoclonal antibody labelled with Ulight™ dye) was prepared according to the manufacturer's protocol (PerkinElmer LANCE Ultra cAMP kit). Following this incubation, 5 mcL europium labelled cAMP and 5 mcL Ulight anti-cAMP antibody was added to each well. The plate was covered to prevent evaporation and incubated for 60 minutes at room temperature in the dark. Plates were read on an Envision fluorescent plate reader (PerkinElmer).
(§4) Test values were first normalized to the system maximum and system minimum averaged values in Excel using the formula: (test value−system min average)/(system max average -system min average)*100. Normalized test values represent a baseline corrected percentage of the system maximum cAMP response induced by forskolin. Data from up to 3 replicate tests were analyzed for each peptide. Potency values were estimated using GraphPad Prism software (v7.04) by fitting data to a 4-parameter logistic curve model: Y=Bottom+(Top−Bottom)/(1+10^((LogEC50−X))). The Hill slope was constrained to 1.0. EC50 values were converted to pEC50 values using the formula: pEC50=−Log (EC50).

The target in assay [2] is T2, human Glucagon receptor (GCGR) (Homo sapiens, UniProt P47871).
T2 construct: A cDNA fragment encoding the full-length open reading frame of the human GCGR; expressed in transfected cells; host or cells: CHO-K1, pcDNA3.1+, Lipofectamine 2000
Put plainly: cAMP accumulation assay, CHO-K1 cells expressing human GCGR. In kind it is cell-based. The note with it: mean pEC50, Table 10.
Excerpt: as §1
A cDNA fragment encoding the full-length open reading frame of the cynomolgus monkey GLP-1R (Genebank accession #XM_028847603 was cloned into pcDNA3.1+ for expression in CHO-K1 cells. A cDNA fragment encoding the full-length open reading frame of the human GCGR (Genebank accession #NM_000160 was cloned into pcDNA3.1+ for expression in CHO-K1 cells. A cDNA fragment encoding the full-length open reading frame of the rat GCGR (Genebank accession #NM_12091 was cloned into pcDNA3.1+ for expression in CHO-K1 cells. A cDNA fragment encoding the full-length open reading frame of the cynomolgus monkey GCGR (Genebank accession #XM_005585255 was cloned into pcDNA3.1+ for expression in CHO-K1 cells.
as §2, §3, §4
Background: Changes in cAMP serve as a functional read-out for many G protein-coupled receptors.

T1 sequence (P43220 24-463): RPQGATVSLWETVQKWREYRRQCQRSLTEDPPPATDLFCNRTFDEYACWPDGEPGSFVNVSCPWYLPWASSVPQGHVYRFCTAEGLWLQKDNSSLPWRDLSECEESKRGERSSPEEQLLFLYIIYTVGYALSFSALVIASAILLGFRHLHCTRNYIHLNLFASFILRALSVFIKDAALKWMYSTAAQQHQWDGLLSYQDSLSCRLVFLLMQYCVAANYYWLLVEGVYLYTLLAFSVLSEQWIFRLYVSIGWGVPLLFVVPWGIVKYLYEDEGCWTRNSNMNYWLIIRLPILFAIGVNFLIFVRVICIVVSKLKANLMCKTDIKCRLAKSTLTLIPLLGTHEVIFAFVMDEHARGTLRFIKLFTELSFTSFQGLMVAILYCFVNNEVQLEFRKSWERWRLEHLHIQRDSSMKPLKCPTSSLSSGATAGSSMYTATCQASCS
T2 sequence (P47871 26-477): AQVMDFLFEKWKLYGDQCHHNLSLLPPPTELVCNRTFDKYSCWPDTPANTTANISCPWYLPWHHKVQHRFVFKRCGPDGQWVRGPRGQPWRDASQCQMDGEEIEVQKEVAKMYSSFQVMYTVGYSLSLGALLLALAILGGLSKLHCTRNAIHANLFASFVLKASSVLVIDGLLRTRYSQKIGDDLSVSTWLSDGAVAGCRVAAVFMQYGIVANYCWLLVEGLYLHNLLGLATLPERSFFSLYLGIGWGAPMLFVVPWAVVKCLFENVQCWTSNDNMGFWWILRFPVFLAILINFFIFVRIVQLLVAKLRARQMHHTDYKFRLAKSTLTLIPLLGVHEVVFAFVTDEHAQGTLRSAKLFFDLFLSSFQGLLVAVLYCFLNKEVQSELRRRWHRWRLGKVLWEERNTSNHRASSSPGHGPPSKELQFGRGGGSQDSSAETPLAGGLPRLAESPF

On to `CC(C)C[C@H](NC(=O)[C@H](Cc1ccc(O)cc1)NC(=O)[C@H](CCCCN)NC(=O)[C@H](CO)NC(=O)[C@H](Cc1ccc(O)cc1)NC(=O)[C@H](CC(=O)O)NC(=O)[C@H](CO)NC(=O)[C@@H](NC(=O)[C@H](Cc1ccccc1)NC(=O)[C@@H](NC(=O)CNC(=O)[C@H](Cc1c[nH]cn1)NC(=O)[C@H](CO)NC(=O)[C@@H](N)Cc1ccc(O)cc1)[C@@H](C)O)[C@@H](C)O)C(=O)N[C@@H](CC(=O)O)C(=O)N[C@@H](CCCCNC(=O)CC[C@H](NC(=O)CC[C@H](NC(=O)COCCOCCNC(=O)CCCCCCCCCCCCCCCCCCC(=O)O)C(=O)O)C(=O)O)C(=O)N[C@@H](CCCCN)C(=O)N[C@@H](Cc1ccc(O)cc1)C(=O)N[C@@H](C)C(=O)N[C@@H](CCC(N)=O)C(=O)N[C@@H](CCC(=O)O)C(=O)N[C@@H](Cc1ccccc1)C(=O)N[C@H](C(=O)NC(C)(C)C(=O)N[C@@H](Cc1c[nH]c2ccccc12)C(=O)N[C@@H](CC(C)C)C(=O)N[C@@H](CCC(=O)O)C(=O)N[C@@H](CO)C(=O)N[C@@H](CCC(=O)O)C(=O)N1CCC[C@H]1C(=O)N[C@@H](CO)C(=O)N[C@@H](CO)C(=O)NCC(=O)N[C@@H](C)C(=O)N1CCC[C@H]1C(=O)N1CCC[C@H]1C(=O)N1CCC[C@H]1C(=O)N[C@@H](CO)C(=O)O)C(C)C` [Compound A19] (H-YSHGTFTSDYSKYLDK([γGlu-γGlu-AEEA-C20 diacid])KYAQEFV[Aib]WLESEPSSGAPPPS-OH), for which the concentration for a half-maximal effect (EC50) in assay [1] was over 1000 pM. Same read-out and setting: for `CC(C)C[C@H](NC(=O)[C@H](Cc1ccc(O)cc1)NC(=O)[C@H](CCCCN)NC(=O)[C@H](CO)NC(=O)[C@H](Cc1ccc(O)cc1)NC(=O)[C@H](CC(=O)O)NC(=O)[C@H](CO)NC(=O)[C@@H](NC(=O)[C@H](Cc1ccccc1)NC(=O)[C@@H](NC(=O)CNC(=O)[C@H](Cc1c[nH]cn1)NC(=O)[C@H](CO)NC(=O)[C@@H](N)Cc1ccc(O)cc1)[C@@H](C)O)[C@@H](C)O)C(=O)N[C@@H](CC(=O)O)C(=O)N[C@@H](CCCCNC(=O)CC[C@H](NC(=O)CC[C@H](NC(=O)COCCOCCNC(=O)CCCCCCCCCCCCCCCCCCC(=O)O)C(=O)O)C(=O)O)C(=O)N[C@@H](CCCCN)C(=O)N[C@@H](Cc1ccc(O)cc1)C(=O)N[C@@H](C)C(=O)N[C@@H](CCC(N)=O)C(=O)N[C@@H](CCC(=O)O)C(=O)N[C@@H](Cc1ccccc1)C(=O)N[C@H](C(=O)NC(C)(C)C(=O)N[C@@H](Cc1c[nH]c2ccccc12)C(=O)N[C@@H](CC(C)C)C(=O)N[C@@H](CCC(=O)O)C(=O)N[C@@H](CCCCN)C(=O)N[C@@H](CCC(=O)O)C(=O)N1CCC[C@H]1C(=O)N[C@@H](CO)C(=O)N[C@@H](CO)C(=O)NCC(=O)N[C@@H](C)C(=O)N1CCC[C@H]1C(=O)N1CCC[C@H]1C(=O)N1CCC[C@H]1C(=O)N[C@@H](CO)C(=O)O)C(C)C` [Compound A20] (H-YSHGTFTSDYSKYLDK([γGlu-γGlu-AEEA-C20 diacid])KYAQEFV[Aib]WLEKEPSSGAPPPS-OH; N-terminus assumed) the value was over 1000 pM. `CC(C)C[C@H](NC(=O)[C@H](Cc1ccc(O)cc1)NC(=O)[C@H](CCCCN)NC(=O)[C@H](CO)NC(=O)[C@H](Cc1ccc(O)cc1)NC(=O)[C@H](CC(=O)O)NC(=O)[C@H](CO)NC(=O)[C@@H](NC(=O)[C@H](Cc1ccccc1)NC(=O)[C@@H](NC(=O)CNC(=O)[C@H](Cc1c[nH]cn1)NC(=O)[C@H](CO)NC(=O)[C@@H](N)Cc1ccc(O)cc1)[C@@H](C)O)[C@@H](C)O)C(=O)N[C@@H](CC(=O)O)C(=O)NC(C)(C)C(=O)N[C@@H](CCCCN)C(=O)N[C@@H](CCCCNC(=O)CC[C@H](NC(=O)CC[C@H](NC(=O)COCCOCCNC(=O)CCCCCCCCCCCCCCCCCCC(=O)O)C(=O)O)C(=O)O)C(=O)N[C@@H](C)C(=O)N[C@@H](CCC(N)=O)C(=O)N[C@@H](CCC(=O)O)C(=O)N[C@@H](Cc1ccccc1)C(=O)N[C@H](C(=O)NC(C)(C)C(=O)N[C@@H](Cc1c[nH]c2ccccc12)C(=O)N[C@@H](CC(C)C)C(=O)N[C@@H](CCC(=O)O)C(=O)N[C@@H](CC(=O)O)C(=O)N[C@@H](CCC(=O)O)C(=O)N1CCC[C@H]1C(=O)N[C@@H](CO)C(=O)N[C@@H](CO)C(=O)NCC(=O)N[C@@H](C)C(=O)N1CCC[C@H]1C(=O)N1CCC[C@H]1C(=O)N1CCC[C@H]1C(=O)N[C@@H](CO)C(=O)O)C(C)C` [Compound A4] (H-YSHGTFTSDYSKYLD[Aib]KK([γGlu-γGlu-AEEA-C20 diacid])AQEFV[Aib]WLEDEPSSGAPPPS-OH; N-terminus assumed): the EC50 in assay [2] is 2 pM. This lies in the picomolar range. As for `CC(C)C[C@H](NC(=O)[C@H](Cc1ccc(O)cc1)NC(=O)[C@H](CCCCN)NC(=O)[C@H](CO)NC(=O)[C@H](Cc1ccc(O)cc1)NC(=O)[C@H](CC(=O)O)NC(=O)[C@H](CO)NC(=O)[C@@H](NC(=O)[C@H](Cc1ccccc1)NC(=O)[C@@H](NC(=O)CNC(=O)[C@H](Cc1c[nH]cn1)NC(=O)[C@H](CO)NC(=O)[C@@H](N)Cc1ccc(O)cc1)[C@@H](C)O)[C@@H](C)O)C(=O)N[C@@H](CC(=O)O)C(=O)N[C@@H](CCCCNC(=O)CC[C@H](NC(=O)CC[C@H](NC(=O)COCCOCCNC(=O)CCCCCCCCCCCCCCCCCCC(=O)O)C(=O)O)C(=O)O)C(=O)N[C@@H](CCCCN)C(=O)N[C@@H](Cc1ccc(O)cc1)C(=O)N[C@@H](C)C(=O)N[C@@H](CO)C(=O)N[C@@H](CCC(=O)O)C(=O)N[C@@H](Cc1ccccc1)C(=O)N[C@H](C(=O)NC(C)(C)C(=O)N[C@@H](Cc1c[nH]c2ccccc12)C(=O)N[C@@H](CC(C)C)C(=O)N[C@@H](CCC(=O)O)C(=O)N[C@@H](CO)C(=O)N[C@@H](CCC(=O)O)C(=O)N1CCC[C@H]1C(=O)N[C@@H](CO)C(=O)N[C@@H](CO)C(=O)NCC(=O)N[C@@H](C)C(=O)N1CCC[C@H]1C(=O)N1CCC[C@H]1C(=O)N1CCC[C@H]1C(=O)N[C@@H](CO)C(=O)O)C(C)C` [Compound A24] (H-YSHGTFTSDYSKYLDK([γGlu-γGlu-AEEA-C20 diacid])KYASEFV[Aib]WLESEPSSGAPPPS-OH; N-terminus assumed), the EC50 in assay [1] was over 1000 pM. In assay [2], `CC(C)C[C@H](NC(=O)[C@H](Cc1ccc(O)cc1)NC(=O)[C@H](CCCCN)NC(=O)[C@H](CO)NC(=O)[C@H](Cc1ccc(O)cc1)NC(=O)[C@H](CC(=O)O)NC(=O)[C@H](CO)NC(=O)[C@@H](NC(=O)[C@H](Cc1ccccc1)NC(=O)[C@@H](NC(=O)CNC(=O)[C@H](Cc1c[nH]cn1)NC(=O)[C@H](CO)NC(=O)[C@@H](N)Cc1ccc(O)cc1)[C@@H](C)O)[C@@H](C)O)C(=O)N[C@@H](CC(=O)O)C(=O)NC(C)(C)C(=O)N[C@@H](CCCCN)C(=O)N[C@@H](Cc1ccc(O)cc1)C(=O)N[C@@H](C)C(=O)N[C@@H](CCCCNC(=O)CC[C@H](NC(=O)CC[C@H](NC(=O)COCCOCCNC(=O)CCCCCCCCCCCCCCCCCCC(=O)O)C(=O)O)C(=O)O)C(=O)N[C@@H](CCC(=O)O)C(=O)N[C@@H](Cc1ccccc1)C(=O)N[C@H](C(=O)NC(C)(C)C(=O)N[C@@H](Cc1c[nH]c2ccccc12)C(=O)N[C@@H](CC(C)C)C(=O)N[C@@H](CCC(=O)O)C(=O)N[C@@H](CC(=O)O)C(=O)N[C@@H](CCC(=O)O)C(=O)N1CCC[C@H]1C(=O)N[C@@H](CO)C(=O)N[C@@H](CO)C(=O)NCC(=O)N[C@@H](C)C(=O)N1CCC[C@H]1C(=O)N1CCC[C@H]1C(=O)N1CCC[C@H]1C(=O)N[C@@H](CO)C(=O)O)C(C)C` [Compound A5] (H-YSHGTFTSDYSKYLD[Aib]KYAK([γGlu-γGlu-AEEA-C20 diacid])EFV[Aib]WLEDEPSSGAPPPS-OH; N-terminus assumed) gave an EC50 of 2.51 pM. In other words, the picomolar range.
